These results are taken from US10836756B2, “Crystalline salts of peptide epoxyketone immunoproteasome inhibitor” (KEZAR LIFE SCIENCES, priority 2016, dated 2020).

Where a name gives a salt, the structure may show the parent alone. Read-outs that look alike come from different tables or passages of the source.

For series [1] the following is noted: Olovson et al. 1986, Kumar et al. 2013; cited from earlier work.
Series [2] is described as follows: Solubility of compound G (amorphous) and its monomaleate salt (crystalline) in water, buffers and solvents. The class given is physicochemical.
Series [3] is described as follows: Stability of Form A and its freebase, one month storage. It counts as physicochemical. To be noted: for % Decomposition: 1 month. As to the method:
The stability of Form A and its freebase was tested at ambient conditions (25° C. and 40% relative humidity, “RH”), and at elevated temperature and humidity (40° C. and 75% RH) over the duration of one month.

Series [4] can be described thus: pKa of the monomaleate salt. The class given is physicochemical.

Turning to `C=CCc1ccccc1OCC(O)CNC(C)C` (stereo not drawn) [alprenolol], in series [1], the “solubility of the maleate salt compared to other counterions, such as fumarate” value is “decreased solubility”.
On to `COc1ccc([C@@H](O)[C@H](NC(=O)[C@H](C)NC(=O)CN2CCOCC2)C(=O)N[C@@H](CC2=CCCC2)C(=O)[C@@]2(C)CO2)cc1` [compound G, (2S,3R)—N-[(2S)-3-(cyclopent-1-en-1-yl)-1-[(2R)-2-methyloxiran-2-yl]-1-oxopropan-2-yl]-3-hydroxy-3-(4-methoxyphenyl)-2-[(2S)-2-[2-(morpholin-4-yl)acetamido]propanamido]propanamide], for which the solubility in series [2] (25 mM Na citrate buffer, pH 4.9, aqueous buffer, 25 mM Na Citrate, pH 4.9, amorphous, read-out: Solubility) came to 46000 µg/mL; in series [2] (25 mM Na citrate buffer, pH 5.1, aqueous buffer, 25 mM Na Citrate, pH 5.1, amorphous, read-out: Solubility), 32000 µg/mL; in series [2] (25 mM Na citrate buffer, pH 5.2, aqueous buffer, 25 mM Na Citrate, pH 5.2, amorphous, read-out: Solubility), 24800 µg/mL; in series [2] (25 mM Na citrate buffer, pH 5.4, aqueous buffer, 25 mM Na Citrate, pH 5.4, amorphous, read-out: Solubility), 19500 µg/mL; in series [2] (25 mM Na citrate buffer, pH 5.8, aqueous buffer, 25 mM Na Citrate, pH 5.8, amorphous, read-out: Solubility) it was 11200 µg/mL; in series [2] (25 mM Na citrate buffer, pH 6.3, aqueous buffer, 25 mM Na Citrate, pH 6.3, amorphous, read-out: Solubility), 9800 µg/mL. In addition, the solubility in series [2] (25 mM Na citrate buffer, pH 6.8, aqueous buffer, 25 mM Na Citrate, pH 6.8, amorphous, read-out: Solubility) turned out to be 8800 µg/mL; in series [2] (0.9% saline, pH 7.6, saline or isotonic, 0.9% saline, pH 7.6, amorphous, read-out: Solubility), 9400 µg/mL; in series [2] (10% EtOH, aqueous with cosolvent or surfactant or cyclodextrin, EtOH, 10%, amorphous, read-out: Solubility) it was 13700 µg/mL; in series [2] (10% NMP, aqueous with cosolvent or surfactant or cyclodextrin, NMP, 10%, amorphous, read-out: Solubility), 28800 µg/mL; in series [2] (10% PEG 400, aqueous with cosolvent or surfactant or cyclodextrin, PEG 400, 10%, amorphous, read-out: Solubility) it was 11800 µg/mL; in series [2] (10% PG, aqueous with cosolvent or surfactant or cyclodextrin, PG, 10%, amorphous, read-out: Solubility) it was 12100 µg/mL. Moreover, the solubility in series [2] (10% glycerol, aqueous with cosolvent or surfactant or cyclodextrin, glycerol, 10%, amorphous, read-out: Solubility) was 8600 µg/mL; in series [2] (33% EtOH, aqueous with cosolvent or surfactant or cyclodextrin, EtOH, 33%, amorphous, read-out: Solubility), 20000 µg/mL; in series [2] (33% NMP, aqueous with cosolvent or surfactant or cyclodextrin, NMP, 33%, amorphous, read-out: Solubility) it was over 100000 µg/mL; in series [2] (33% PEG 400, aqueous with cosolvent or surfactant or cyclodextrin, PEG 400, 33%, amorphous, read-out: Solubility), 17400 µg/mL; in series [2] (33% PG, aqueous with cosolvent or surfactant or cyclodextrin, PG, 33%, amorphous, read-out: Solubility), 20500 µg/mL; in series [2] (33% glycerol, aqueous with cosolvent or surfactant or cyclodextrin, glycerol, 33%, amorphous, read-out: Solubility) it was 5800 µg/mL. Further, the solubility in series [2] (67% EtOH, aqueous with cosolvent or surfactant or cyclodextrin, EtOH, 67%, amorphous, read-out: Solubility) is over 100000 µg/mL; in series [2] (67% NMP, aqueous with cosolvent or surfactant or cyclodextrin, NMP, 67%, amorphous, read-out: Solubility), over 100000 µg/mL; in series [2] (67% PEG 400, aqueous with cosolvent or surfactant or cyclodextrin, PEG 400, 67%, amorphous, read-out: Solubility) it was over 50000 µg/mL; in series [2] (67% PG, aqueous with cosolvent or surfactant or cyclodextrin, PG, 67%, amorphous, read-out: Solubility), over 100000 µg/mL; in series [2] (67% glycerol, aqueous with cosolvent or surfactant or cyclodextrin, glycerol, 67%, amorphous, read-out: Solubility), 5400 µg/mL; in series [2] (100% EtOH, organic solvent or mixture, EtOH, 100%, amorphous, read-out: Solubility), over 100000 µg/mL. Besides, the solubility in series [2] (100% NMP, organic solvent or mixture, NMP, 100%, amorphous, read-out: Solubility) is over 100000 µg/mL; in series [2] (100% PEG 400, organic solvent or mixture, PEG 400, 100%, amorphous, read-out: Solubility) it was over 50000 µg/mL; in series [2] (100% PG, organic solvent or mixture, PG, 100%, amorphous, read-out: Solubility), over 100000 µg/mL; in series [2] (PBS, pH 7.2, aqueous buffer, PBS, pH 7.2, amorphous, read-out: Solubility), 7600 µg/mL; in series [2] (glycerol, 100%, amorphous), “not soluble”; in series [2] (water, pH 7.4, water, Water, pH 7.4, amorphous, read-out: Solubility), 8900 µg/mL. Further, the solubility in series [2] (water, read-out: solubility in water) turned out to be 8900 µg/mL. The “% Decomposition” value in series [3] (25° C./40% RH, lot 1) is on record as 1.9%; in series [3] (25° C./40% RH, lot 2) it was 1.6%; in series [3] (25° C./40% RH, lot 3), 1.4%; in series [3] (40° C./75% RH, lot 1) it was 67.5%; in series [3] (40° C./75% RH, lot 2), 28.8%; in series [3] (40° C./75% RH, lot 3), 21.1%. In addition, the “% Purity at 1 Month” value in series [3] (25° C./40% RH, lot 1 (purity at t = 0 95.1)) is listed as 93.2%; in series [3] (25° C./40% RH, lot 2 (purity at t = 0 85.6)), 84.0%; in series [3] (25° C./40% RH, lot 3 (purity at t = 0 93.7)) it was 92.3%; in series [3] (40° C./75% RH, lot 1 (purity at t = 0 95.1)) it was 92.3%; in series [3] (40° C./75% RH, lot 2 (purity at t = 0 85.6)) it was 92.3%; in series [3] (40° C./75% RH, lot 3 (purity at t = 0 93.7)) it was 72.5%. Besides, in series [3] (40° C. and 75% RH, one month), the “stability at elevated temperature and humidity (in words)” value was “rapid decomposition”.
On to `COc1ccc([C@@H](O)[C@H](NC(=O)[C@H](C)NC(=O)CN2CCOCC2)C(=O)N[C@@H](CC2=CCCC2)C(=O)[C@@]2(C)CO2)cc1` [monomaleate salt of compound G], for which the solubility in series [2] (2-methyltetrahydrofuran, organic solvent or mixture, 2-Methyltetrahydrofuran, crystalline, read-out: Solubility) is 1760 µg/mL; in series [2] (acetone, organic solvent or mixture, Acetone, crystalline, read-out: Solubility) it was 3190 µg/mL; in series [2] (acetonitrile, organic solvent or mixture, Acetonitrile (ACN), crystalline, read-out: Solubility), 1300 µg/mL; in series [2] (aqueous medium, aqueous, read-out: aqueous solubility), over 100000 µg/mL; in series [2] (dichloromethane, organic solvent or mixture, Dichloromethane (DCM), crystalline, read-out: Solubility), 210 µg/mL; in series [2] (ethanol, organic solvent or mixture, Ethanol (EtOH), crystalline, read-out: Solubility), 6970 µg/mL. Moreover, the solubility in series [2] (ethyl acetate, organic solvent or mixture, Ethyl acetate (EA), crystalline, read-out: Solubility) was 470 µg/mL; in series [2] (isopropanol, organic solvent or mixture, Isopropanol (IPA), crystalline, read-out: Solubility) it was 3280 µg/mL; in series [2] (isopropyl acetate, organic solvent or mixture, Isopropyl acetate (IPAc), crystalline, read-out: Solubility) it was 130 µg/mL; in series [2] (methanol, organic solvent or mixture, Methanol (MeOH), crystalline, read-out: Solubility), 42100 µg/mL; in series [2] (methyl tert-butyl ether, organic solvent or mixture, Methyl tert-butyl ether (MTBE), crystalline, read-out: Solubility), 170 µg/mL; in series [2] (tetrahydrofuran, organic solvent or mixture, Tetrahydrofuran (THF), crystalline, read-out: Solubility), 1960 µg/mL. The solubility in series [2] (toluene, organic solvent or mixture, Toluene, crystalline, read-out: Solubility) was 20 µg/mL; in series [2] (water, ambient temperature (e.g., 20° C. to 25° C.), read-out: solubility in water) it was over 100000 µg/mL. Also, the pKa in series [4] is 5.
